Reference: US20150105252A1, “SUBSTITUTED PYRAZOLES AS HERBICIDES” (E I DU PONT DE NEMOURS AND COMPANY, priority 2013, published 2015)

Assays:
foxtail, giant = test: Test A preemergence; assay type: in vivo, Setaria faberii; conditions: preemergence; for Foxtail, Giant plant response rating (0 to 100 scale): 125 g ai/ha, visual injury approx. 10 days after treatment; for Foxtail, Giant plant response rating: 500 g ai/ha, visual injury after approx. 10 days, 0 to 100 scale (0 no effect, 100 complete control)
Method in brief: (§1)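 After sowing in a sand–loam mix, pots received compound preemergence by directed soil spray, or postemergence once plants reached the one- to two-leaf stage (2–10 cm). Formulation contained surfactant in a non-phytotoxic solvent. Injury was scored visually after ~10 greenhouse days, 0–100 scale.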

morningglory [1] = test: Test A preemergence; assay type: in vivo, Ipomoea spp.; conditions: preemergence; for Morningglory plant response rating (0 to 100 scale): 125 g ai/ha, visual injury approx. 10 days after treatment; for Morningglory plant response rating: 500 g ai/ha, visual injury after approx. 10 days, 0 to 100 scale (0 no effect, 100 complete control)
Method in brief: as §1

corn [2] = test: Test A preemergence; assay type: in vivo, Zea mays; conditions: preemergence; for Corn plant response rating (0 to 100 scale): 125 g ai/ha, visual injury approx. 10 days after treatment; for Corn plant response rating: 500 g ai/ha, visual injury after approx. 10 days, 0 to 100 scale (0 no effect, 100 complete control)
Method in brief: as §1

barnyardgrass [3] = test: Test A postemergence; assay type: in vivo, Echinochloa crus-galli
Method in brief: as §1

velvetleaf [4] = test: Test A postemergence; assay type: in vivo, Abutilon theophrasti
Method in brief: as §1

corn [5] = test: Test A postemergence; assay type: in vivo, Zea mays
Method in brief: as §1

galium = test: Test C preemergence; assay type: in vivo, Galium aparine; conditions: preemergence; for Plant response rating, Galium: 125 g ai/ha, scale 0 to 100, 0 = no effect, 100 = complete control
Method in brief: (§2)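 Scores of 0 (no effect) to 100 (complete control) were assigned by eye after 13–15 days, comparing treated pots with controls. Soil-applied (preemergence) treatments went onto seeds in loam and sand; foliar (postemergence) treatments onto 1- to 4-leaf plants in peat medium.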

barnyardgrass [6] = test: Test C preemergence; assay type: in vivo, Echinochloa crus-galli; conditions: preemergence; for Plant response rating, Barnyardgrass: 125 g ai/ha, scale 0 to 100, 0 = no effect, 100 = complete control
Method in brief: as §2

lambsquarters = test: Test C postemergence; assay type: in vivo, Chenopodium album; conditions: for Plant response rating (scale of 0 to 100 where 0 is no effect and 100 is complete control), Lambsquarters: Postemergence, 31 g ai/ha, visually evaluated after 13 to 15 days; for Lambsquarters plant response rating / Plant response rating, Lambsquarters: postemergence; for Lambsquarters plant response rating: 62 g ai/ha, scale 0 to 100
Method in brief: as §2

morningglory [7] = test: Test C postemergence; assay type: in vivo, Ipomoea coccinea; conditions: for Plant response rating (scale of 0 to 100 where 0 is no effect and 100 is complete control), Morningglory: Postemergence, 31 g ai/ha, visually evaluated after 13 to 15 days; for Morningglory plant response rating / Plant response rating, Morningglory: postemergence; for Morningglory plant response rating: 62 g ai/ha, scale 0 to 100
Method in brief: as §2

pigweed = test: Test C postemergence; assay type: in vivo, Amaranthus retroflexus; conditions: postemergence; for Pigweed plant response rating: 62 g ai/ha, scale 0 to 100
Method in brief: as §2

barnyardgrass [8] = test: Test C postemergence; assay type: in vivo, Echinochloa crus-galli; conditions: for Plant response rating (scale of 0 to 100 where 0 is no effect and 100 is complete control), Barnyardgrass: Postemergence, 31 g ai/ha, visually evaluated after 13 to 15 days; for Barnyardgrass plant response rating / Plant response rating, Barnyardgrass: postemergence; for Barnyardgrass plant response rating: 62 g ai/ha, scale 0 to 100
Method in brief: as §2

oilseed rape = test: Test C postemergence; assay type: in vivo, Brassica napus; conditions: postemergence; for Oilseed Rape plant response rating: 62 g ai/ha, scale 0 to 100
Method in brief: as §2

oat, wild = test: Test C postemergence; assay type: in vivo, Avena fatua; conditions: for Plant response rating (scale of 0 to 100 where 0 is no effect and 100 is complete control), Oat, Wild: Postemergence, 31 g ai/ha, visually evaluated after 13 to 15 days; for Oat, Wild plant response rating / Plant response rating, Oat, Wild: postemergence; for Oat, Wild plant response rating: 62 g ai/ha, scale 0 to 100
Method in brief: as §2

velvetleaf [9] = test: Test C postemergence; assay type: in vivo, Abutilon theophrasti; conditions: postemergence; for Plant response rating, Velvetleaf: 250 g ai/ha, scale 0 to 100 (0 no effect, 100 complete control); for Velvetleaf plant response rating: scale 0 to 100
Method in brief: as §2

chickweed = test: Test C postemergence; assay type: in vivo, Stellaria media; conditions: for Plant response rating (scale of 0 to 100 where 0 is no effect and 100 is complete control), Chickweed: Postemergence, 31 g ai/ha, visually evaluated after 13 to 15 days; for Chickweed plant response rating / Plant response rating, Chickweed: postemergence; for Chickweed plant response rating: 62 g ai/ha, scale 0 to 100
Method in brief: as §2

[10] = Postemergence, 500 g ai/ha, 0 to 100 scale (0 no effect, 100 complete control)
[11] = postemergence, 125 g ai/ha, about 10 days, visual rating on 0 to 100 scale (0 no effect, 100 complete control)
[12] = 31 g ai/ha, visual rating, scale 0 to 100 (0 no effect, 100 complete control), 13 to 15 days
[13] = 62 g ai/ha, scale 0 to 100 (0 no effect, 100 complete control), 13 to 15 days
[14] = 250 g ai/ha, scale 0 to 100, 0 is no effect, 100 is complete control
[15] = 250 g ai/ha, scale 0 to 100 (0 no effect, 100 complete control)
[16] = 125 g ai/ha, scale 0 to 100, 0 no effect, 100 complete control

SMILES: CCOc1cc(C(=O)NOC(C)C)nn1Cc1ccnc(C(F)(F)F)c1 [Compound 153]
- Foxtail, Giant plant response rating (0 to 100 scale) (foxtail, giant): 100
- Foxtail, Giant plant response rating (foxtail, giant): 100
- Morningglory plant response rating (0 to 100 scale) (morningglory [1]): 100
- Morningglory plant response rating (morningglory [1]): 100
- Corn plant response rating (0 to 100 scale) (corn [2]): 90
- Corn plant response rating (corn [2]): 100
- Barnyardgrass plant response rating (barnyardgrass [3]; [10]): 100
- Barnyardgrass plant response rating (barnyardgrass [3]; [11]): 100
- Velvetleaf plant response rating (velvetleaf [4]; [10]): 100
- Velvetleaf plant response rating (velvetleaf [4]; [11]): 70
- Corn plant response rating (corn [5]; [10]): 100
- Corn plant response rating (corn [5]; [11]): 90
- Galium plant response rating (galium; [12]): 30
- Galium plant response rating (galium; [13]): 100
- Plant response rating, Galium (galium; 13 to 15 days): 100
- Galium plant response rating (galium; [14]): 100
- Barnyardgrass plant response rating (barnyardgrass [6]; [12]): 15
- Barnyardgrass plant response rating (barnyardgrass [6]; [13]): 95
- Plant response rating, Barnyardgrass (barnyardgrass [6]; 13 to 15 days): 100
- Barnyardgrass plant response rating (barnyardgrass [6]; [14]): 100
- Plant response rating (scale of 0 to 100 where 0 is no effect and 100 is complete control), Lambsquarters (lambsquarters): 65
- Lambsquarters plant response rating (lambsquarters): 55
- Plant response rating, Lambsquarters (lambsquarters; [15]): 85
- Plant response rating, Lambsquarters (lambsquarters; [16]): 75
- Plant response rating (scale of 0 to 100 where 0 is no effect and 100 is complete control), Morningglory (morningglory [7]): 65
- Morningglory plant response rating (morningglory [7]): 85
- Plant response rating, Morningglory (morningglory [7]; [15]): 80
- Plant response rating, Morningglory (morningglory [7]; [16]): 70
- Pigweed plant response rating (pigweed): 25
- Plant response rating, Pigweed (pigweed; [15]): 80
- Plant response rating, Pigweed (pigweed; [16]): 25
- Plant response rating (scale of 0 to 100 where 0 is no effect and 100 is complete control), Barnyardgrass (barnyardgrass [8]): 5
- Barnyardgrass plant response rating (barnyardgrass [8]): 10
- Plant response rating, Barnyardgrass (barnyardgrass [8]; [15]): 15
- Plant response rating, Barnyardgrass (barnyardgrass [8]; [16]): 10
- Oilseed Rape plant response rating (oilseed rape): 25
- Plant response rating, Oilseed Rape (oilseed rape; [15]): 45
- Plant response rating, Oilseed Rape (oilseed rape; [16]): 40
- Plant response rating (scale of 0 to 100 where 0 is no effect and 100 is complete control), Oat, Wild (oat, wild): 5
- Oat, Wild plant response rating (oat, wild): 10
- Plant response rating, Oat, Wild (oat, wild; [15]): 20
- Plant response rating, Oat, Wild (oat, wild; [16]): 5
- Plant response rating, Velvetleaf (velvetleaf [9]): 65
- Velvetleaf plant response rating (velvetleaf [9]): 30
- Plant response rating (scale of 0 to 100 where 0 is no effect and 100 is complete control), Chickweed (chickweed): 50
- Chickweed plant response rating (chickweed): 70
- Plant response rating, Chickweed (chickweed; [15]): 80
- Plant response rating, Chickweed (chickweed; [16]): 70

SMILES: CCNC(=O)c1cc(CC)n(Cc2cc(C(F)(F)F)nn2C)n1 [Compound 154]
- Foxtail, Giant plant response rating (0 to 100 scale) (foxtail, giant): 100
- Foxtail, Giant plant response rating (foxtail, giant): 100
- Morningglory plant response rating (0 to 100 scale) (morningglory [1]): 100
- Morningglory plant response rating (morningglory [1]): 100
- Corn plant response rating (0 to 100 scale) (corn [2]): 0
- Corn plant response rating (corn [2]): 30
- Barnyardgrass plant response rating (barnyardgrass [3]; [10]): 100
- Barnyardgrass plant response rating (barnyardgrass [3]; [11]): 100
- Velvetleaf plant response rating (velvetleaf [4]; [10]): 100
- Velvetleaf plant response rating (velvetleaf [4]; [11]): 80
- Corn plant response rating (corn [5]; [10]): 100
- Corn plant response rating (corn [5]; [11]): 40
- Galium plant response rating (galium; [12]): 90
- Galium plant response rating (galium; [13]): 100
- Plant response rating, Galium (galium; 13 to 15 days): 100
- Galium plant response rating (galium; [14]): 100
- Barnyardgrass plant response rating (barnyardgrass [6]; [12]): 55
- Barnyardgrass plant response rating (barnyardgrass [6]; [13]): 95
- Plant response rating, Barnyardgrass (barnyardgrass [6]; 13 to 15 days): 100
- Barnyardgrass plant response rating (barnyardgrass [6]; [14]): 100
- Plant response rating (scale of 0 to 100 where 0 is no effect and 100 is complete control), Lambsquarters (lambsquarters): 40
- Lambsquarters plant response rating (lambsquarters): 50
- Plant response rating, Lambsquarters (lambsquarters; [15]): 75
- Plant response rating, Lambsquarters (lambsquarters; [16]): 75
- Plant response rating (scale of 0 to 100 where 0 is no effect and 100 is complete control), Morningglory (morningglory [7]): 15
- Morningglory plant response rating (morningglory [7]): 60
- Plant response rating, Morningglory (morningglory [7]; [15]): 95
- Plant response rating, Morningglory (morningglory [7]; [16]): 85
- Pigweed plant response rating (pigweed): 65
- Plant response rating, Pigweed (pigweed; [15]): 95
- Plant response rating, Pigweed (pigweed; [16]): 85
- Plant response rating (scale of 0 to 100 where 0 is no effect and 100 is complete control), Barnyardgrass (barnyardgrass [8]): 5
- Barnyardgrass plant response rating (barnyardgrass [8]): 5
- Plant response rating, Barnyardgrass (barnyardgrass [8]; [15]): 10
- Plant response rating, Barnyardgrass (barnyardgrass [8]; [16]): 5
- Oilseed Rape plant response rating (oilseed rape): 45
- Plant response rating, Oilseed Rape (oilseed rape; [15]): 70
- Plant response rating, Oilseed Rape (oilseed rape; [16]): 60
- Plant response rating (scale of 0 to 100 where 0 is no effect and 100 is complete control), Oat, Wild (oat, wild): 5
- Oat, Wild plant response rating (oat, wild): 5
- Plant response rating, Oat, Wild (oat, wild; [15]): 25
- Plant response rating, Oat, Wild (oat, wild; [16]): 20
- Plant response rating, Velvetleaf (velvetleaf [9]): 55
- Velvetleaf plant response rating (velvetleaf [9]): 25
- Plant response rating (scale of 0 to 100 where 0 is no effect and 100 is complete control), Chickweed (chickweed): 60
- Chickweed plant response rating (chickweed): 70
- Plant response rating, Chickweed (chickweed; [15]): 90
- Plant response rating, Chickweed (chickweed; [16]): 60
